Source: US8148510B2, “Antifungal polypeptides” (Pioneer Hi-Bred International, Inc., priority 2004, dated 2012)
Entries after “also recorded” stand apart in the source; their conditions may differ. Where two headings read alike, the source gives them in different places.

B1: LBNL-9827-2: antifungal polypeptide from Monascus ruber IMV 00127; 3 additional N-terminal amino acids versus SEQ ID NO:7 (protein)
chain: DVQLSKFGGECSLKHNTCTYLKGGKNHVVNCGSAANKKCKSDRHHCEYDEHHKRVDCQTPV

How the values were obtained:
[1] = test system: Fusarium verticillioides (FVE); format: cell-based
[2] = test system: Fusarium graminearum (FGR); format: cell-based; details: plate assay, qualitative
[3] = test system: Colletotrichum graminicola (CGR); format: cell-based; details: plate assay, qualitative
Diplodia maydis (DMA) = format: cell-based; details: plate assay, qualitative
[4] = test system: Fusarium verticillioides (FVE); experiment: antifungal activity assay of transgenic maize callus extracts; format: cell-based; details: against FVE, qualitative
[5] = test system: F. verticilioides line that expresses the reporter gene β-glucuronidase (GUS); experiment: Fusarium verticillioides challenge assay of maize seedlings (GUS activity); format: in vivo; details: maize seedlings transformed with PHP22300; three days after spore exposure; 4 explants per event
C. graminicola [6] = experiment: upper stalk resistance of transgenic maize plants; format: in vivo, Colletotrichum graminicola; details: T0 transgenic maize, uppermost stalk internode, about five days after inoculation, 10 cm^2 area around inoculation site; control 84.7±2.6%
C. graminicola [7] = experiment: lower stalk resistance of transgenic maize plants; format: in vivo, Colletotrichum graminicola; details: T0 transgenic maize, lowest internode inoculated 10 DAP, scored after 21 days, five lowermost internodes; empty vector control 4.0±0.2

| Molecule | antifungal activity against FVE [1] | antifungal activity against FGR [2] | antifungal activity against CGR [3] | antifungal activity against DMA (Diplodia maydis (DMA)) | antifungal activity against FGR ([2]; listed as SEQ ID NO:1) | antifungal activity against CGR ([3]; listed as SEQ ID NO:1) | antifungal activity against DMA (Diplodia maydis (DMA); listed as SEQ ID NO:1) | antifungal activity of protein produced and isolated from transgenic maize callus [4] | average GUS activity (correlates with fungal biomass) relative to controls [5] | mean percent infected area (C. graminicola [6]) | mean score (number of internodes showing more than 75% disease) (C. graminicola [7]) | antifungal activity against FGR ([2]; listed as SEQ ID NO:9) | antifungal activity against CGR ([3]; listed as SEQ ID NO:9) | antifungal activity against DMA (Diplodia maydis (DMA); listed as SEQ ID NO:9) |
| --- | --- | --- | --- | --- | --- | --- | --- | --- | --- | --- | --- | --- | --- | --- |
| LBNL-9827-1: antifungal polypeptide from Monascus ruber IMV 00127; identical to SEQ ID NO:9 without 3 N-terminal amino acids (LSKFGGECSLKHNTCTYLKGGKNHVVNCGSAANKKCKSDRHHCEYDEHHKRVDCQTPV) | active against FVE; also recorded: display antifungal activity | display antifungal activity | display antifungal activity | display antifungal activity | – | – | – | – | – | – | – | – | – | – |
| LBNL-5220: antifungal polypeptide (55 amino acids, mature mass 6174 Da) isolated from Penicillium simplicissimum fermentation broth (LKYTGTCTRANNQCKYKGQNDRDTFVKCPTFANKKCTRDGAPCSFDSYSRAVTCD) | showed antifungal activity; also recorded: display antifungal activity | – | – | – | showed antifungal activity; also recorded: display antifungal activity | showed antifungal activity; also recorded: display antifungal activity | showed antifungal activity; also recorded: display antifungal activity | has antifungal activity | decrease in average GUS activity | 54.4±1.4% | 2.2±0.1 | – | – | – |
| LBNL-5197/8-2: antifungal polypeptide from Penicillium miczyinskii strain K01-17A4 (LSKYGGECSLAHNTCTYLKGGKNQVVACGTAANKRCKTDRHHCEYDEYHKTVDCQTPV) | anti-FVE activity; also recorded: display antifungal activity | display antifungal activity | display antifungal activity | display antifungal activity | – | – | – | – | – | – | – | – | – | – |
| B1 | inhibited FVE, FGR, CGR, and DMA in a dose-dependent fashion; also recorded: inhibited Colletotrichum graminicola, Diplodia maydis, Fusarium graminearum, and Fusarium verticillioides in a dose-dependent fashion; also recorded: display antifungal activity | – | – | – | – | – | – | – | – | – | – | inhibited FVE, FGR, CGR, and DMA in a dose-dependent fashion; also recorded: inhibited Colletotrichum graminicola, Diplodia maydis, Fusarium graminearum, and Fusarium verticillioides in a dose-dependent fashion; also recorded: display antifungal activity | inhibited FVE, FGR, CGR, and DMA in a dose-dependent fashion; also recorded: inhibited Colletotrichum graminicola, Diplodia maydis, Fusarium graminearum, and Fusarium verticillioides in a dose-dependent fashion; also recorded: display antifungal activity | inhibited FVE, FGR, CGR, and DMA in a dose-dependent fashion; also recorded: inhibited Colletotrichum graminicola, Diplodia maydis, Fusarium graminearum, and Fusarium verticillioides in a dose-dependent fashion; also recorded: display antifungal activity |
